The values below come from ChEMBL document CHEMBL1201862, “PubChem BioAssay data set” (2004).

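Cells were grown in 96-well plates and exposed to each compound for 48 hours at five concentrations; endpoints were interpolated linearly between bracketing concentrations, or set to the highest concentration if not reached. The concentration for 50% growth inhibition is given as GI50.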 The source made the active and inactive calls. No stated cut-off is given here; in the data, active = GI50 up to about 1.1 µM and inactive = higher.

Among the test systems are BT-549; NCI-H522; KM-20L2; SN12C; EKVX; KM12; TK-10; ACHN; DMS-273; MOLT-4; M19-MEL; SR; MDA-MB-231; IGROV-1; T47D; SNB-78; PC-3; DMS-114; RXF 393; MDA-N.
Holding throughout (assay): NCI tumour cell line growth inhibition, 48 h

For the compound `COc1cccc2c1C(=O)c1c(O)c3c(c(O)c1C2=O)C[C@@](O)(C(=O)CO)C[C@@H]3OC1CC(N2CCOCC2)C(O)C(C)O1` (stereo not given in full), the GI50 in the experiment with BT-549 is 52.5 nM (active); with NCI-H522, 2.5 nM (active); with KM-20L2, 2.5 nM (active); in the experiment with SN12C it was 15.6 nM (active); in the experiment on EKVX, 15.9 nM (active); in the experiment on KM12 it was 24.6 nM (active). Further, the GI50 in the experiment with TK-10 is 48.5 nM (active); in the experiment with ACHN, 5.13 nM (active); in the experiment on DMS-273, 4.09 nM (active); in the experiment on MOLT-4, 3.33 nM (active); in the experiment on M19-MEL it was 5.52 nM (active); in the experiment with SR, 4.66 nM (active). The GI50 is 55.1 nM (active) in the experiment on MDA-MB-231; 13.1 nM (active) in the experiment on IGROV-1; 57.4 nM (active) in the experiment with T47D; 2.5 nM (active) with SNB-78; 33 nM (active) with PC-3; 2.5 nM (active) with DMS-114. In addition, the values for the GI50 in the experiment on RXF 393 and in the experiment on MDA-N were 3.96 nM (active) and 32.8 nM (active), respectively.
For the compound `O=C(OCc1ccccc1)C(Cc1ccccc1)N(Cc1ccccc1)Cc1ccccc1` (stereo not given), the GI50 with NCI-H522 is 25700 nM (inactive); with KM-20L2 it was > 100000 nM (inactive); in the experiment with SN12C it was 53000 nM (inactive); in the experiment with EKVX it was > 100000 nM (inactive); in the experiment on KM12, > 100000 nM (inactive); in the experiment on TK-10 it was > 100000 nM (inactive). Further, the GI50 in the experiment on ACHN was 19500 nM (inactive); in the experiment with DMS-273, 44600 nM (inactive); in the experiment with MOLT-4, 18500 nM (inactive); in the experiment on M19-MEL, 76700 nM (inactive); in the experiment with SR, 9510 nM (inactive); in the experiment on IGROV-1 it was > 100000 nM (inactive). Also, the figures for the GI50 in the experiment on SNB-78, with DMS-114 and with RXF 393 were > 100000 nM (inactive), 7500 nM (inactive) and 46900 nM (inactive), respectively.
